Patent US20230250478A1, “DIAGNOSIS AND TREATMENT OF CHRONIC DIABETIC COMPLICATIONS USING LONG NONCODING RNAS AS TARGETS” (THE UNIVERSITY OF WESTERN ONTARIO, priority 2020, published 2023)

Legend:
Type in all cases: cell-based, human
[1] = test system: HRECs; assay: 2-DG pre-treatment of HRECs, RT-qPCR
Protocol: (§1) Following the concentrations documented in previous studies, DZNep (Cayman Chemical, Ann Arbor, Mich., USA; 5 μM), 5-aza-dC (Sigma, St. Louis, USA; 5 μM) or 2-DG (Sigma; 0.6 mM and 5 mM) pre-treatment was applied to HRECs for 1 hour prior to the addition of D-glucose (22,27,55,58). DZNep, 5-aza-dC or 2-DG-treated HRECs and their respective controls were collected at 48 hours for further analyses.
(§2) As extensively described by us (22,27,33,55-57), total RNA was extracted using the TRIzol reagent (Invitrogen). Once total RNA was obtained, a spectrophotometer (260 nm; Gene Quant, Pharmacia Biotech, USA) was used to quantify RNA concentrations in which 1-2 μg of total RNA was reverse transcribed to complementary DNA (cDNA) using a high-capacity cDNA reverse-transcription kit (Applied Biosystems/Thermo Fisher Scientific). cDNA was then amplified in the LightCycler 96 System (Roche Diagnostics, Laval, QC, CAN) using the SYBR-green master mix (Takara Bio, Mountain View, Calif., USA) and specific primers for the genes of interest (Sigma; Tables 1-2). RT-qPCR results were analyzed using the LightCycler 96 SW 1.1 software (Roche) and expression levels were calculated by the relative standard curve method using β-actin as an internal control for sample normalization.

[2] = test system: HRECs; assay: Trypan blue exclusion assay; settings: 2-DG-treated HRECs, data not shown
[3] = test system: HRECs; assay: 5-aza-dC pre-treatment of HRECs, RT-qPCR
Protocol: as §1, §2

[4] = test system: HRECs; assay: DZNep pre-treatment of HRECs, RT-qPCR
Protocol: as §1, §2

[5] = test system: HOTAIR; assay: siRNA-mediated knockdown of HOTAIR in HRECs, RT-qPCR; settings: for reduction of HOTAIR RNA levels: HG-cultured HRECs, 48 hours, compared to SCR HG controls; for transcript levels of VEGF-A, ET-1 and ANGPTL4: custom double-stranded siRNAs, HRECs, HG
Protocol: Human retinal microvascular endothelial cells (HRECs; Cell Systems, Kirkland, Wash., USA; catalog number ACBRI 181), mouse retinal microvascular endothelial cells (MRECs; Applied Biological Materials Inc., Richmond, BC, CAN), and primary lung endothelial cells (MLECs) from C57BL/6J mice were cultured in endothelial basal media-2 (EBM-2, Lonza, Walkersville, Md., USA) containing endothelial growth media-2 (EGM-2) SingleQuots (Lonza). All cells were grown in 75 cm^2 culture flasks and maintained in a humidified incubator containing 5% CO2 at 37° C. As described previously (22,55,56), in order to reduce variability for experimentation, cells were used between passages three and six and the cellular densities were determined accordingly based on the type of culture plates used for each experiment. Generally, once 80% confluence was obtained post-seeding, ECs were cultured in serum and growth factor-free medium overnight before exposure to different D-glucose levels (final glucose concentrations of 5 mmol/L, mimicking normoglycemia [NG], and 25 mmol/L, mimicking hyperglycemia [HG]) for various durations; the selected glucose levels are based on a large volume of previous experiments (22,27,33,55-57). All in vitro or ex vivo experiments were independently repeated at least three times and performed with six replicates, unless specified.
HRECs were transfected using scrambled siRNAs (ID number: AM4635 [SCR], Thermo Fisher Scientific) or pre-designed siRNAs targeting human HOTAIR (ID: n272221 [si1-HOTAIR], Thermo Fisher Scientific; n272222 [si2-HOTAIR], Thermo Fisher Scientific; R-187951-00-0005 [SMARTpool siHOTAIR], Horizon Discovery; Table 6, top panel), EZH2 (ID: M-004218-03-0005 [SMARTpool si-EZH2], Horizon Discovery), CTCF (ID: M-020165-02-0005 [SMARTpool siCTCF], Horizon Discovery), DNMT1 (ID: s4216 [siDNMT1], Thermo Fisher Scientific) or mouse Hotair (ID: R-173526-00-0005 [SMARTpool siHOTAIR], Horizon Discovery, Table 6, bottom panel) using Lipofectamine 2000 (Invitrogen, Burlington, ON, Canada) and Opti-MEM reduced serum media (Thermo Fisher Scientific). As documented previously by us (22,27,33,55-57), cells were transfected with 100 nM of each siRNA for 3-4 hours and subsequently recovered in complete EBM-2 overnight. Cells were then serum starved the following morning, between 18-24 hours, and then incubated with specific glucose concentrations (5 mmol/L or 25 mmol/L) for 48 hours. Knockdown of the target genes were then confirmed using RT-qPCR.
as §2

[6] = 5-aza-dC 5 μM, HRECs, compared to HG controls
[7] = DZNep 5 μM plus HG, 48 hours, compared to SCR HG cells

O=CC[C@@H](O)[C@H](O)[C@H](O)CO [2-DG, 2-deoxy-D-glucose]
HOXD3 and HOXD10 expressions ([1]; 5 mM 2-DG, HRECs cultured with HG, compared to HG controls): significantly upregulated
PARP1 and P300 expressions ([1]; 5 mM 2-DG, HRECs, HG): did not induce significant reductions
expressions of DNMT3A and DNMT3B ([1]; 5 mM of 2-DG, HRECs, HG): no differences were observed
expressions of EZH2, SUZ12, EED and DNMT1 ([1]; 5 mM of 2-DG, HRECs, HG): significant reductions
HG-induced expressions of HOTAIR, VEGF-A, ET-1, ANGPTL4, MCP-1, IL-1β, CTCF and Cytochrome B ([1]; 2-DG 0.6 or 5 mM, HRECs, HG 48 hours): significantly blocked
viability [2]: 45-55%

Nc1ncn([C@H]2C[C@H](O)[C@@H](CO)O2)c(=O)n1 [5-aza-dC, 5-Aza-2′-deoxycytidine]
reduction of DNMT3A RNA levels [3, 6]: ~58%
reduction of DNMT3B RNA levels [3, 6]: ~69%
ANGPTL4, P300 and PARP1 expressions ([3]; 5-aza-dC-treated HRECs, HG): no significant differences
HOTAIR, ET-1, CTCF, Cytochrome B, MCP-1, IL-1β, HOXD3 and HOXD10 transcripts ([3]; 5-aza-dC-treated HRECs, HG): significant elevations
glucose-induced increases in VEGF-A RNA expressions ([3]; 5-aza-dC-treated HRECs, HG): significantly prevented
HOTAIR expressions and its downstream targets ([3]; summary statement in Example 3): can reduce

Nc1nccc2c1ncn2[C@@H]1C=C(CO)[C@@H](O)[C@H]1O [DZNep, 3-Deazaneplanocin A]
HOTAIR, VEGF-A, ANGPTL4, CTCF, PARP1, P300 and Cytochrome B transcripts ([4]; DZNep 5 μM and HG, compared to SCR HG controls): statistically significant reductions
reduction of EED transcripts [4, 7]: ~61%
reduction of EZH2 transcripts [4, 7]: ~72%
reduction of SUZ12 transcripts [4, 7]: ~48%
ET-1, MCP-1, IL-1β, HOXD3 and HOXD10 transcripts ([4]; DZNep 5 μM pre-treatment plus HG culture): significantly augmented
HOTAIR expressions and its downstream targets ([4]; summary statement in Example 3): can reduce

siHOTAIR SB1: custom 21-nt duplex siRNA; sense CCAAAGAGUCUGAUGUUUACA, antisense UAAACAUCAGACUCUUUGGGG; HOTAIR target position 457-479 (RNA, backbone not given here) [custom 21-nt duplex siRNA; HOTAIR target position 457-479]
reduction of HOTAIR RNA levels [5]: ~67%
transcript levels of VEGF-A, ET-1 and ANGPTL4 [5]: greatest reductions

siHOTAIR SB2: custom 21-nt duplex siRNA; sense CAUAAACAAUAUAUCUGUUGG, antisense AACAGAUAUAUUGUUUAUGAG; HOTAIR target position 1156-1178 (RNA, backbone not given here) [custom 21-nt duplex siRNA; HOTAIR target position 1156-1178]
reduction of HOTAIR RNA levels [5]: ~41%
transcript levels of VEGF-A, ET-1 and ANGPTL4 [5]: greatest reductions

siHOTAIR SB3: custom 21-nt duplex siRNA; sense CUCUAUAAUAUGCUUAUAUUA, antisense AUAUAAGCAUAUUAUAGAGUU; HOTAIR target position 1700-1722 (RNA, backbone not given here) [custom 21-nt duplex siRNA; HOTAIR target position 1700-1722]
reduction of HOTAIR RNA levels [5]: ~57%

siHOTAIR SB4: custom 21-nt duplex siRNA; sense GUGUAUAUAUAAUAAUGUAUU, antisense UACAUUAUUAUAUAUACACAA; HOTAIR target position 2160-2182 (RNA, backbone not given here) [custom 21-nt duplex siRNA; HOTAIR target position 2160-2182]
reduction of HOTAIR RNA levels [5]: ~32%
